Test results reported in ChEMBL document CHEMBL3885881, “DrugMatrix”.

Organism: Rattus norvegicus
Experiment: DrugMatrix - Regimen: Daily Repeat
Type: toxicity, organism-based, Sprague-Dawley
Parameters: regimen Daily Repeat, gender Male, age 6-8 weeks
Conditions: in vivo, po, route oral GAVAGE, vehicle .5 % CMC; for ABSOLUTE BASOPHIL / BASOPHIL / EOSINOPHIL / ERYTHROCYTE COUNT / HEMATOCRIT / HEMOGLOBIN / LEUKOCYTE COUNT / LYMPHOCYTE / MEAN CORPUSCULAR HEMOGLOBIN / MEAN CORPUSCULAR HEMOGLOBIN CONCENTRATION / MEAN CORPUSCULAR VOLUME / MONOCYTE / NEUTROPHIL / PLATELET COUNT: tissue Blood; for ALANINE AMINOTRANSFERASE / ALKALINE PHOSPHATASE / ASPARTATE AMINOTRANSFERASE / BLOOD UREA NITROGEN / CHLORIDE / CHOLESTEROL / CREATINE PHOSPHOKINASE / CREATININE / GLUCOSE / PHOSPHORUS / POTASSIUM / SODIUM / TOTAL BILIRUBIN / TOTAL PROTEIN: tissue Plasma
[1] = 0 mg/kg, 72 h, dose level Control, time 3 day
[2] = 0 mg/kg, 120 h, dose level Control, time 5 day
[3] = 20 mg/kg, 72 h, dose level Low, time 3 day
[4] = 20 mg/kg, 120 h, dose level Low, time 5 day
[5] = 89 mg/kg, 72 h, dose level High, time 3 day
[6] = 89 mg/kg, 120 h, dose level High, time 5 day

SMILES: CC(C(=O)O)c1ccc2oc(-c3ccc(Cl)cc3)nc2c1 (configuration not stated) [BENOXAPROFEN]
- ABSOLUTE BASOPHIL [1]: 16.7 cells/µL
- BASOPHIL [1]: 0.17%
- EOSINOPHIL [1]: 0.62%
- ERYTHROCYTE COUNT [1]: 6.55 x10E6/uL
- HEMATOCRIT [1]: 42%
- HEMOGLOBIN [1]: 13.48 G/DL
- LEUKOCYTE COUNT [1]: 8.79 x10E3/uL
- LYMPHOCYTE [1]: 76.98%
- MEAN CORPUSCULAR HEMOGLOBIN [1]: 20.57 pg
- MEAN CORPUSCULAR HEMOGLOBIN CONCENTRATION [1]: 32.08 G/DL
- MEAN CORPUSCULAR VOLUME [1]: 64.1 fL
- MONOCYTE [1]: 2.12%
- NEUTROPHIL [1]: 19%
- PLATELET COUNT [1]: 1432.17 x10E3/uL
- ALANINE AMINOTRANSFERASE [1]: 42.83 u/L
- ALKALINE PHOSPHATASE [1]: 328.5 u/L
- ASPARTATE AMINOTRANSFERASE [1]: 78.33 u/L
- BLOOD UREA NITROGEN [1]: 14.5 mg/dL
- CHLORIDE [1]: 104.5 MEQ/L
- CHOLESTEROL [1]: 78.67 mg/dL
- CREATINE PHOSPHOKINASE [1]: 282.33 u/L
- CREATININE [1]: 0.25 mg/dL
- GLUCOSE [1]: 173.67 mg/dL
- PHOSPHORUS [1]: 12.83 mg/dL
- POTASSIUM [1]: 6.7 MEQ/L
- SODIUM [1]: 145.83 MEQ/L
- TOTAL BILIRUBIN [1]: 0.4 mg/dL
- TOTAL PROTEIN [1]: 5.93 G/DL
- ABSOLUTE BASOPHIL [2]: 28 cells/µL
- BASOPHIL [2]: 0.26%
- EOSINOPHIL [2]: 0.44%
- ERYTHROCYTE COUNT [2]: 6.99 x10E6/uL
- HEMATOCRIT [2]: 45.12%
- HEMOGLOBIN [2]: 14.26 G/DL
- LEUKOCYTE COUNT [2]: 9.42 x10E3/uL
- LYMPHOCYTE [2]: 79.92%
- MEAN CORPUSCULAR HEMOGLOBIN [2]: 20.44 pg
- MEAN CORPUSCULAR HEMOGLOBIN CONCENTRATION [2]: 31.62 G/DL
- MEAN CORPUSCULAR VOLUME [2]: 64.6 fL
- MONOCYTE [2]: 2.2%
- NEUTROPHIL [2]: 16.14%
- PLATELET COUNT [2]: 1062.2 x10E3/uL
- ALANINE AMINOTRANSFERASE [2]: 44 u/L
- ALKALINE PHOSPHATASE [2]: 342.6 u/L
- ASPARTATE AMINOTRANSFERASE [2]: 74.17 u/L
- BLOOD UREA NITROGEN [2]: 13 mg/dL
- CHLORIDE [2]: 103 MEQ/L
- CHOLESTEROL [2]: 72.83 mg/dL
- CREATINE PHOSPHOKINASE [2]: 184.67 u/L
- CREATININE [2]: 0.47 mg/dL
- GLUCOSE [2]: 168.17 mg/dL
- PHOSPHORUS [2]: 12.27 mg/dL
- POTASSIUM [2]: 6.98 MEQ/L
- SODIUM [2]: 147 MEQ/L
- TOTAL BILIRUBIN [2]: 0.65 mg/dL
- TOTAL PROTEIN [2]: 6.23 G/DL
- ABSOLUTE BASOPHIL [3]: 20 cells/µL
- BASOPHIL [3]: 0.23%
- EOSINOPHIL [3]: 0.43%
- ERYTHROCYTE COUNT [3]: 6.67 x10E6/uL
- HEMATOCRIT [3]: 42.8%
- HEMOGLOBIN [3]: 13.83 G/DL
- LEUKOCYTE COUNT [3]: 10.28 x10E3/uL
- LYMPHOCYTE [3]: 78.07%
- MEAN CORPUSCULAR HEMOGLOBIN [3]: 20.73 pg
- MEAN CORPUSCULAR HEMOGLOBIN CONCENTRATION [3]: 32.33 G/DL
- MEAN CORPUSCULAR VOLUME [3]: 64.2 fL
- MONOCYTE [3]: 2.7%
- NEUTROPHIL [3]: 16.57%
- PLATELET COUNT [3]: 1248 x10E3/uL
- ALANINE AMINOTRANSFERASE [3]: 44.67 u/L
- ALKALINE PHOSPHATASE [3]: 316.67 u/L
- ASPARTATE AMINOTRANSFERASE [3]: 75.67 u/L
- BLOOD UREA NITROGEN [3]: 13.33 mg/dL
- CHLORIDE [3]: 104.33 MEQ/L
- CHOLESTEROL [3]: 64.33 mg/dL
- CREATINE PHOSPHOKINASE [3]: 179 u/L
- CREATININE [3]: 0.33 mg/dL
- GLUCOSE [3]: 176.67 mg/dL
- PHOSPHORUS [3]: 12.2 mg/dL
- POTASSIUM [3]: 6.37 MEQ/L
- SODIUM [3]: 146.33 MEQ/L
- TOTAL BILIRUBIN [3]: 0.37 mg/dL
- TOTAL PROTEIN [3]: 5.7 G/DL
- ABSOLUTE BASOPHIL [4]: 56.7 cells/µL
- BASOPHIL [4]: 0.6%
- EOSINOPHIL [4]: 0.53%
- ERYTHROCYTE COUNT [4]: 7.47 x10E6/uL
- HEMATOCRIT [4]: 48.6%
- HEMOGLOBIN [4]: 15.37 G/DL
- LEUKOCYTE COUNT [4]: 8.81 x10E3/uL
- LYMPHOCYTE [4]: 79.3%
- MEAN CORPUSCULAR HEMOGLOBIN [4]: 20.53 pg
- MEAN CORPUSCULAR HEMOGLOBIN CONCENTRATION [4]: 31.57 G/DL
- MEAN CORPUSCULAR VOLUME [4]: 65.03 fL
- MONOCYTE [4]: 2.53%
- NEUTROPHIL [4]: 15.73%
- PLATELET COUNT [4]: 1097 x10E3/uL
- ALKALINE PHOSPHATASE [4]: 357.67 u/L
- ASPARTATE AMINOTRANSFERASE [4]: 65 u/L
- BLOOD UREA NITROGEN [4]: 13.33 mg/dL
- CHLORIDE [4]: 104.67 MEQ/L
- CHOLESTEROL [4]: 59.33 mg/dL
- CREATINE PHOSPHOKINASE [4]: 158.33 u/L
- CREATININE [4]: 0.43 mg/dL
- GLUCOSE [4]: 175.33 mg/dL
- PHOSPHORUS [4]: 12.03 mg/dL
- POTASSIUM [4]: 7.37 MEQ/L
- SODIUM [4]: 150.67 MEQ/L
- TOTAL BILIRUBIN [4]: 0.33 mg/dL
- TOTAL PROTEIN [4]: 6.43 G/DL
- ABSOLUTE BASOPHIL [5]: 46.7 cells/µL
- BASOPHIL [5]: 0.87%
- EOSINOPHIL [5]: 0.43%
- ERYTHROCYTE COUNT [5]: 5.74 x10E6/uL
- HEMATOCRIT [5]: 35.5%
- HEMOGLOBIN [5]: 11.63 G/DL
- LEUKOCYTE COUNT [5]: 4.56 x10E3/uL
- LYMPHOCYTE [5]: 64.07%
- MEAN CORPUSCULAR HEMOGLOBIN [5]: 20.27 pg
- MEAN CORPUSCULAR HEMOGLOBIN CONCENTRATION [5]: 32.8 G/DL
- MEAN CORPUSCULAR VOLUME [5]: 61.93 fL
- MONOCYTE [5]: 4.3%
- NEUTROPHIL [5]: 29.23%
- PLATELET COUNT [5]: 1116 x10E3/uL
- ALANINE AMINOTRANSFERASE [5]: 30.67 u/L
- ALKALINE PHOSPHATASE [5]: 216.33 u/L
- ASPARTATE AMINOTRANSFERASE [5]: 71 u/L
- BLOOD UREA NITROGEN [5]: 13 mg/dL
- CHLORIDE [5]: 105 MEQ/L
- CHOLESTEROL [5]: 81 mg/dL
- CREATINE PHOSPHOKINASE [5]: 293 u/L
- CREATININE [5]: 0.37 mg/dL
- GLUCOSE [5]: 179 mg/dL
- PHOSPHORUS [5]: 11.33 mg/dL
- POTASSIUM [5]: 6.47 MEQ/L
- SODIUM [5]: 142.33 MEQ/L
- TOTAL BILIRUBIN [5]: 0.33 mg/dL
- TOTAL PROTEIN [5]: 4.93 G/DL
- ABSOLUTE BASOPHIL [6]: 80 cells/µL
- BASOPHIL [6]: 0.75%
- EOSINOPHIL [6]: 0.5%
- ERYTHROCYTE COUNT [6]: 3.39 x10E6/uL
- HEMATOCRIT [6]: 21.15%
- HEMOGLOBIN [6]: 6.75 G/DL
- LEUKOCYTE COUNT [6]: 9.48 x10E3/uL
- LYMPHOCYTE [6]: 62%
- MEAN CORPUSCULAR HEMOGLOBIN [6]: 20.05 pg
- MEAN CORPUSCULAR HEMOGLOBIN CONCENTRATION [6]: 32.38 G/DL
- MEAN CORPUSCULAR VOLUME [6]: 61.98 fL
- MONOCYTE [6]: 3.5%
- NEUTROPHIL [6]: 36%
- PLATELET COUNT [6]: 1019.25 x10E3/uL
- ALANINE AMINOTRANSFERASE [6]: 205.75 u/L
- ALKALINE PHOSPHATASE [6]: 329.75 u/L
- ASPARTATE AMINOTRANSFERASE [6]: 292.5 u/L
- BLOOD UREA NITROGEN [6]: 38.75 mg/dL
- CHLORIDE [6]: 103.5 MEQ/L
- CHOLESTEROL [6]: 101 mg/dL
- CREATINE PHOSPHOKINASE [6]: 255.75 u/L
- CREATININE [6]: 0.33 mg/dL
- GLUCOSE [6]: 163.25 mg/dL
- PHOSPHORUS [6]: 10.22 mg/dL
- POTASSIUM [6]: 5.38 MEQ/L
- SODIUM [6]: 143.25 MEQ/L
- TOTAL BILIRUBIN [6]: 0.42 mg/dL
- TOTAL PROTEIN [6]: 4.65 G/DL
